The target in the first experiment is M-phase inducer phosphatase 2 (Homo sapiens) (UniProt P30305). Briefly: Cdc25B catalytic domain phosphatase inhibitors, dose response, biochemical, with glutathione, probe assessment (AID 671). The settings on record: recombinant Cdc25B catalytic domain, phosphatase activity.
Chain of M-phase inducer phosphatase 2 (Homo sapiens) (P30305 whole entry, looked up, the tested form may be a part): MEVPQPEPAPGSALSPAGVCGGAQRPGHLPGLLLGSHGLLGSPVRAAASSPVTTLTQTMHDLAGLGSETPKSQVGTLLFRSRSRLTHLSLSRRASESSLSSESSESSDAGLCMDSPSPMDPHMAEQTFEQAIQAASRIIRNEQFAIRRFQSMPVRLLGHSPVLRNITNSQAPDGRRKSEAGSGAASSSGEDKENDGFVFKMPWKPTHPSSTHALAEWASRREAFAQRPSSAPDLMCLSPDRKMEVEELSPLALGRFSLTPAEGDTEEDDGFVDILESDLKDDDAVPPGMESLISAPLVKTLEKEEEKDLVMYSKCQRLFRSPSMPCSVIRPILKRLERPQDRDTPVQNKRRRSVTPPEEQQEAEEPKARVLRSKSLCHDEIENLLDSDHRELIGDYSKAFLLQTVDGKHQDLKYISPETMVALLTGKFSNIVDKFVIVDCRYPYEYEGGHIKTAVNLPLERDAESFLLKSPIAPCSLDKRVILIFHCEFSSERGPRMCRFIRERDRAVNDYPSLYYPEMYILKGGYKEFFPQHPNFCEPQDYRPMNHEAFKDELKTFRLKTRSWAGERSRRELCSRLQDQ
`Cc1ccc2c(c1)C1C=CCC1C(C(=O)O)N2` (stereo not drawn): the IC50 – broadly, the midpoint of a concentration-inhibition curve – is 5.89 µM.

The experiment is the same for the next values; noted with them: recombinant Cdc25B catalytic domain, phosphatase activity, measured here: inhibition at top dose 50 uM, at 50 µM, stronger effect = higher value.
For `O=C(Nc1ccc2nc(-c3ccco3)c(-c3ccco3)nc2c1)N1CCCCCC1`, the inhibition (usually the change of the read-out against control, counted positive when it falls) was determined as 85.5%. Same read-out and setting: the result for `Cc1ccc2c(c1C)NC(C(=O)O)C1CC=CC21` (stereo not drawn) reads 89.9%; that for `CCOc1ccc2noc3c2c1C(=O)c1ccccc1-3`, 30.7%; that for `COc1ccc(Br)cc1/C=c1\sc2nc(-c3ccco3)nn2c1=O`, 91.7%. Still for that read-out and setting: the result for `CCn1nc(-c2ccccc2)nc2c(=O)n(C)c(=O)nc1-2` reads 34.5%; that for `O=C1C=Cc2ccccc2C1=O`, 78.6%; that for `Cc1ccccc1Nc1cc2ccccc2c(=O)[nH]1`, 40.3%. The same measure, in the same setting: the result for `Cc1c(N=c2c(=O)c3ccccc3c2=O)c(=O)n(-c2ccccc2)n1C` reads 30.4%; that for `N#Cc1c(N2CCCC2)nc(N)c2c(N)nc(N3CCCC3)cc12`, -13.3%. Turning to `Cc1ccc2c(c1)C1C=CCC1C(C(=O)O)N2` (stereo not drawn), the inhibition came to 88.9%. In the case of `c1ccc(CSc2nnc(-c3ccco3)c(-c3ccco3)n2)cc1`, the inhibition came to 84.7%. Still for that read-out and setting: the result for `COc1ccc2noc3c2c1C(=O)c1ccccc1-3` reads 16.7%.

Consider `CC(=O)Nc1cc(OC(C)=O)c2nonc2c1OC(C)=O`, for which the inhibition stood at 28.7%. The same measure, in the same setting: the result for `[O-]/[N+](=C\c1ccc(OC(F)F)cc1)c1ccccc1` reads 8.3%; that for `Nc1cccc2cnccc12`, -3.3%.

Take `O=C1Cc2ccccc2C(=O)N1CCc1ccccc1`: the inhibition was determined as 7.6%. Regarding `O=C(NC1(O)C(=O)c2ccccc2C1=O)c1ccccc1`, the inhibition was determined as 36%. The same measure, in the same setting: under `CCn1nc(-c2cccs2)nc2c(=O)n(C)c(=O)nc1-2` stands 41.5%; under `O=C(O)C1Nc2c(O)cccc2C2C=CCC12` (stereo not drawn), 94.8%. The same measure, in the same setting: the result for `N#Cc1c(N)sc(=S)c2c1CCN(Cc1ccccc1)C2` reads 51%; that for `O=C(OC1CCCCC1)c1ccc2c(c1)C1C=CCC1C(C(=O)O)N2` (stereo not drawn), 90.2%. Same read-out and setting: the result for `Cn1ncnc2c(=O)n(C)c(=O)nc1-2` reads 63%; that for `CCOC(=O)C(C(=O)OCC)c1cc(Br)c2noc3c2c1C(=O)c1ccccc1-3`, 36.5%; that for `O=c1[nH]c(Nc2ccccc2)cc2ccccc12`, 48.6%.

Take `COc1cccc2c(C)c(C(=O)O)[nH]c12`: the inhibition worked out at 85.7%. On the same count and under the same terms, under `COc1cccc2c1NC(C(=O)O)C1CC=CC21` (stereo not drawn) stands 85%; under `[O-]/[N+](=C\c1ccncc1)c1ccccc1`, 4.4%.
